Experimental findings from ChEMBL document CHEMBL5120920, “A Mitochondria-Targeted Phenylbutyric Acid Prodrug Confers Drastically Improved Anticancer Activities” (J Med Chem, 2022) are described below.

Molecules are shown by their SMILES.

One series has as its system A549. The series is described as follows: Antiproliferative activity against human A549 cells assessed as inhibition of cell viability incubated for 72 hrs by MTT assay. The following applies: A549, 72 h. The series is classed as functional, cell-based. (In general: Tetrazolium assays rely on reduction of a dye to a coloured formazan, in cell work by metabolically active cells.)

The test system of another series is MDA-MB-231. The series is described as follows: Antiproliferative activity against human MDA-MB-231 cells assessed as inhibition of cell viability incubated for 72 hrs by MTT assay. The series is classed as functional, cell-based. The following applies: MDA-MB-231, 72 h.
Another series relates to MCF7. Kind of series: Antiproliferative activity against human MCF7 cells assessed as inhibition of cell viability incubated for 72 hrs by MTT assay. The series is classed as functional, cell-based. The note with it: MCF7, 72 h.
Series [1] has as its system A-375. Kind of series: Antiproliferative activity against human A-375 cells assessed as inhibition of cell viability incubated for 72 hrs by MTT assay. The series is classed as functional, cell-based. The following applies: A-375, 72 h.
Series [2] deals with A-375. The series is described as follows: Induction of cell cycle arrest in human A-375 cells assessed as accumulation at S phase at 10 uM incubated for 24 hrs by PI staining based flow cytometry analysis (reference value: 24.01 %). The series is classed as functional. Background: Flow cytometry measures light scatter and fluorescence of single cells or particles in a stream.

Series [3] concerns A-375. The series is described as follows: Induction of cell cycle arrest in human A-375 cells assessed as accumulation at G2 phase at 10 uM incubated for 24 hrs by PI staining based flow cytometry analysis (reference value: 7.92 %). Format: functional.
Series [4] relates to A-375. The series is described as follows: Induction of cell cycle arrest in human A-375 cells assessed as accumulation at G1 phase at 10 uM incubated for 24 hrs by PI staining based flow cytometry analysis (reference value: 68.07 %). Format: functional.
A short description of series [5]: Cytotoxicity against human L02 cells assessed as cell growth inhibition measured after 72 hrs by MTT assay. Format: toxicity, cell-based.
The nature of series [6]: Cytotoxicity against HUVEC assessed as cell growth inhibition measured after 72 hrs by MTT assay. The following applies: human. Format: toxicity, cell-based.
Series [7] in a line: Cytotoxicity against human HaCaT cells assessed as cell growth inhibition measured after 72 hrs by MTT assay. Format: toxicity, cell-based.
The nature of series [8]: Cytotoxicity against HEK293T cells assessed as cell growth inhibition measured after 72 hrs by MTT assay. Format: toxicity, cell-based, HEK-293T. The following applies: human.

What is called IC50 is the point on the concentration scale where inhibition reaches its midpoint. Regarding `N#Cc1ccc([P+](CCCCCCCCCC(=O)O)(c2ccc(C#N)cc2)c2ccc(C#N)cc2)cc1`, the half-inhibitory concentration (IC50) with A549, in the series on MDA-MB-231, in the series on MCF7 and in the series with A-375 [1] was more than 20 µM in each case.

Consider `O=C(O)CCCCCCCCC[P+](c1ccc(F)cc1)(c1ccc(F)cc1)c1ccc(F)cc1`, for which the IC50 in the series on A549, in the series with MDA-MB-231, with MCF7 and in the series on A-375 [1] was more than 20 µM in each case.

Regarding `O=C(O)CCCCCCC[P+](c1ccccc1)(c1ccccc1)c1ccccc1`, the IC50 in the series with A549, in the series with MDA-MB-231, in the series on MCF7 and in the series with A-375 [1] was more than 20 µM throughout.

Turning to `O=C(O)CCC[P+](c1ccccc1)(c1ccccc1)c1ccccc1`, the IC50 with A549, in the series on MDA-MB-231, with MCF7 and in the series on A-375 [1] was more than 20 µM each time.

`O=C(CCCc1ccccc1)NCC(CNC(=O)CCCc1ccccc1)(CNC(=O)CCCc1ccccc1)NC(=O)CCCCC[P+](c1ccccc1)(c1ccccc1)c1ccccc1`: the IC50 was 7.7 µM with A549, 3.62 µM with MDA-MB-231, 2.46 µM in the series with MCF7 and 3.26 µM with A-375 [1].

As to `O=C(O)CCCCCCCCCCC[P+](c1ccccc1)(c1ccccc1)c1ccccc1`, the IC50 in the series on A549, in the series with MDA-MB-231, with MCF7 and in the series on A-375 [1] was more than 20 µM throughout.

Consider `O=C(CCCc1ccccc1)NCC(CNC(=O)CCCc1ccccc1)(CNC(=O)CCCc1ccccc1)NC(=O)CCCCCCCCC[P+](c1ccc(F)cc1)(c1ccc(F)cc1)c1ccc(F)cc1`, for which the IC50 with A549 is 2.19 µM; in the series with MDA-MB-231, 1.28 µM; in the series with MCF7, 2.26 µM; with A-375 [1] it was 1.29 µM.

As for `COc1cccc2c1C(=O)c1c(O)c3c(c(O)c1C2=O)C[C@@](O)(C(=O)CO)C[C@@H]3O[C@H]1C[C@H](N)[C@H](O)[C@H](C)O1` [DOXORUBICIN], the IC50 with A549 was found to be 0.42 µM; in the series on MDA-MB-231, 0.47 µM; with MCF7, 0.4 µM; in the series on A-375 [1] it was 0.33 µM.

For `COc1cccc([P+](CCCCCCCCCC(=O)O)(c2cccc(OC)c2)c2cccc(OC)c2)c1`, the half-maximal inhibitory concentration (IC50) in the series with A549, with MDA-MB-231, in the series with MCF7 and in the series with A-375 [1] was more than 20 µM throughout.

With `O=C(CCCc1ccccc1)NCC(CNC(=O)CCCc1ccccc1)(CNC(=O)CCCc1ccccc1)NC(=O)CCCCCCC[P+](c1ccccc1)(c1ccccc1)c1ccccc1`, the IC50 with A549 amounted to 1.42 µM; with MDA-MB-231 it was 0.59 µM; in the series on MCF7 it was 1.31 µM; in the series with A-375 [1] it was 1.19 µM.

Consider `CCOC(=O)CCCc1ccccc1`, for which, in the series on A-375 [1], the IC50 is more than 2000 µM.

`Cc1ccc([P+](CCCCCCCCCC(=O)NC(CNC(=O)CCCc2ccccc2)(CNC(=O)CCCc2ccccc2)CNC(=O)CCCc2ccccc2)(c2ccc(C)cc2)c2ccc(C)cc2)cc1`: the IC50 with A549 was found to be 0.73 µM; with MDA-MB-231, 0.44 µM; in the series on MCF7, 0.5 µM; in the series with A-375 [1] it was 0.62 µM.

Regarding `COc1cccc([P+](CCCCCCCCCC(=O)NC(CNC(=O)CCCc2ccccc2)(CNC(=O)CCCc2ccccc2)CNC(=O)CCCc2ccccc2)(c2cccc(OC)c2)c2cccc(OC)c2)c1`, the concentration for half-maximal inhibition (IC50) is 0.97 µM in the series with A549, 0.57 µM in the series on MDA-MB-231, 0.79 µM in the series on MCF7 and 0.66 µM in the series with A-375 [1].

For `O=C(CCCC[P+](c1ccccc1)(c1ccccc1)c1ccccc1)NC(COC(=O)CCCc1ccccc1)(COC(=O)CCCc1ccccc1)COC(=O)CCCc1ccccc1`, the IC50 in the series on A549 was found to be 1.03 µM; with MDA-MB-231 it was 1.57 µM; in the series on MCF7, 0.64 µM; with A-375 [1], 2.79 µM.

For the compound `Cc1ccc([P+](CCCCCCCCCC(=O)O)(c2ccc(C)cc2)c2ccc(C)cc2)cc1`, the IC50 in the series on A549, in the series on MDA-MB-231, with MCF7 and in the series with A-375 [1] was more than 20 µM in each case.

Turning to `O=C(CCCc1ccccc1)NCC(CNC(=O)CCCc1ccccc1)(CNC(=O)CCCc1ccccc1)NC(=O)CCC[P+](c1ccccc1)(c1ccccc1)c1ccccc1`, the IC50 in the series with A549 is 624 µM; in the series with MDA-MB-231, 9.27 µM; in the series on MCF7, 2.72 µM; in the series on A-375 [1], 4.56 µM.

With `O=C(CCCc1ccccc1)NCC(CNC(=O)CCCc1ccccc1)(CNC(=O)CCCc1ccccc1)NC(=O)CCCCCCCCCCC[P+](c1ccccc1)(c1ccccc1)c1ccccc1`, the IC50 came out at 0.57 µM with A549, 0.24 µM in the series on MDA-MB-231, 0.44 µM in the series on MCF7 and 0.36 µM in the series with A-375 [1].

Take `N#Cc1ccc([P+](CCCCCCCCCC(=O)NC(CNC(=O)CCCc2ccccc2)(CNC(=O)CCCc2ccccc2)CNC(=O)CCCc2ccccc2)(c2ccc(C#N)cc2)c2ccc(C#N)cc2)cc1`: the half-inhibitory concentration (IC50) in the series on A549 was 4.06 µM; in the series with MDA-MB-231, 3.96 µM; with MCF7, 8.56 µM; with A-375 [1], more than 10 µM.

Turning to `O=C(O)CC[P+](c1ccccc1)(c1ccccc1)c1ccccc1`, the IC50 in the series on A549, with MDA-MB-231, with MCF7 and in the series on A-375 [1] was more than 20 µM each time.

As for `O=C(O)CCCCCCCCC[P+](c1ccc(C(F)(F)F)cc1)(c1ccc(C(F)(F)F)cc1)c1ccc(C(F)(F)F)cc1.[Br-]`, the Activity in the series on A-375 [2] came to 19.88%; in the series on A-375 [3], 11.68%; in the series with A-375 [4], 68.44%. The IC50 with A549, with MDA-MB-231, with MCF7 and in the series on A-375 [1] was more than 20 µM each time.

In the case of `O=C(CCCc1ccccc1)NCC(CNC(=O)CCCc1ccccc1)(CNC(=O)CCCc1ccccc1)NC(=O)CCCC[P+](c1ccccc1)(c1ccccc1)c1ccccc1`, the IC50 in the series on A549 was found to be 2.15 µM; in the series with MDA-MB-231 it was 3.51 µM; in the series with MCF7, 2.02 µM; with A-375 [1], 232 µM.

With `O=C(CCC[P+](c1ccccc1)(c1ccccc1)c1ccccc1)NC(COC(=O)CCCc1ccccc1)(COC(=O)CCCc1ccccc1)COC(=O)CCCc1ccccc1`, the IC50 stood at 0.65 µM in the series on A549, 1.28 µM with MDA-MB-231, 0.62 µM with MCF7 and 1.29 µM in the series on A-375 [1].

Take `O=C(CCCCC[P+](c1ccccc1)(c1ccccc1)c1ccccc1)NC(COC(=O)CCCc1ccccc1)(COC(=O)CCCc1ccccc1)COC(=O)CCCc1ccccc1`: the IC50 is 1.08 µM with A549, 2.68 µM in the series with MDA-MB-231, 0.91 µM in the series on MCF7 and 4.66 µM in the series with A-375 [1].

In the case of `COC(=O)CCCc1ccccc1`, in the series on A-375 [1], the 50% inhibitory concentration (IC50) was more than 2000 µM.

Take `O=C(CCCc1ccccc1)NCC(CNC(=O)CCCc1ccccc1)(CNC(=O)CCCc1ccccc1)NC(=O)CCCCCCCCC[P+](c1ccccc1)(c1ccccc1)c1ccccc1`: the IC50 with A549 came to 0.81 µM; in the series with MDA-MB-231, 0.31 µM; with MCF7, 0.54 µM; in the series on A-375 [1], 0.42 µM.

Turning to `O=C(O)CCCCC[P+](c1ccccc1)(c1ccccc1)c1ccccc1`, the IC50 in the series with A549, in the series on MDA-MB-231, in the series with MCF7 and in the series with A-375 [1] was more than 20 µM in each case.

Turning to `O=C(O)CCCC[P+](c1ccccc1)(c1ccccc1)c1ccccc1`, the IC50 with A549, with MDA-MB-231, with MCF7 and in the series on A-375 [1] was more than 20 µM in each case.

Take `O=C(CC[P+](c1ccccc1)(c1ccccc1)c1ccccc1)NC(COC(=O)CCCc1ccccc1)(COC(=O)CCCc1ccccc1)COC(=O)CCCc1ccccc1`: the IC50 with A549 worked out at 1.01 µM; with MDA-MB-231, 2.59 µM; in the series on MCF7, 0.97 µM; in the series on A-375 [1] it was 1.75 µM.

`O=C(O)CCCCCCCCC[P+](c1ccccc1)(c1ccccc1)c1ccccc1`: the half-maximal inhibitory concentration (IC50) with A549, in the series on MDA-MB-231, in the series on MCF7 and with A-375 [1] was more than 20 µM throughout.

Turning to `CN(C)c1ccc([P+](CCCCCCCCCC(=O)O)(c2ccc(N(C)C)cc2)c2ccc(N(C)C)cc2)cc1`, the IC50 was 1.87 µM in the series with A549, 1.94 µM with MDA-MB-231, 1.19 µM in the series on MCF7 and 1.25 µM in the series with A-375 [1].

Take `O=C(CCCc1ccccc1)NCC(CNC(=O)CCCc1ccccc1)(CNC(=O)CCCc1ccccc1)NC(=O)CC[P+](c1ccccc1)(c1ccccc1)c1ccccc1`: the IC50 with A549 stood at 5.3 µM; in the series with MDA-MB-231 it was 9.64 µM; in the series on MCF7, 3.34 µM; in the series with A-375 [1], 5.05 µM.

As to `O=C(CCCc1ccccc1)NCC(CNC(=O)CCCc1ccccc1)(CNC(=O)CCCc1ccccc1)NC(=O)CCCCCCCCC[P+](c1ccc(C(F)(F)F)cc1)(c1ccc(C(F)(F)F)cc1)c1ccc(C(F)(F)F)cc1`, the half-maximal inhibitory concentration (IC50) at 72 h in series [5], in series [6], in series [7] and in series [8] was more than 20 µM throughout. Also, the IC50 with A549 is 2.11 µM; with MDA-MB-231, 2.19 µM; with MCF7, 1.91 µM; in the series with A-375 [1], 1.98 µM.
